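Growth conditions: 96-well plates. Treatment: test compound, 48 hours, 5 concentrations. Analysis: linear interpolation between bracketing concentrations; unreached endpoints set to highest concentration. GI50 = concentration required for 50% inhibition of growth. TGI is the concentration that stops growth completely.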
Experiments:
Test in all cases: NCI anticancer screen, dose series, 48 h
786-0 renal = test system: 786-0 renal
A498 renal = test system: A498 renal
A549 NSCLC = test system: A549 NSCLC
ACHN renal = test system: ACHN renal
BT-549 breast = test system: BT-549 breast
CCRF-CEM leukemia = test system: CCRF-CEM leukemia
COLO 205 colon = test system: COLO 205 colon
DU-145 prostate = test system: DU-145 prostate
EKVX NSCLC = test system: EKVX NSCLC
HCC-2998 colon = test system: HCC-2998 colon
HCT-116 colon = test system: HCT-116 colon
HCT-15 colon = test system: HCT-15 colon
HL-60(TB) leukemia = test system: HL-60(TB) leukemia
HOP-62 NSCLC = test system: HOP-62 NSCLC
HOP-92 NSCLC = test system: HOP-92 NSCLC
HS 578T breast = test system: HS 578T breast
HT29 colon = test system: HT29 colon
IGROV1 ovarian = test system: IGROV1 ovarian
K-562 leukemia = test system: K-562 leukemia
KM12 colon = test system: KM12 colon
LOX IMVI melanoma = test system: LOX IMVI melanoma
M14 melanoma = test system: M14 melanoma
MALME-3M melanoma = test system: MALME-3M melanoma
MCF7 breast = test system: MCF7 breast
MDA-MB-231 breast = test system: MDA-MB-231 breast
MDA-MB-435 = test system: MDA-MB-435
MOLT-4 leukemia = test system: MOLT-4 leukemia
NCI-H226 lung = test system: NCI-H226 lung
NCI-H23 lung = test system: NCI-H23 lung
NCI-H460 lung = test system: NCI-H460 lung
NCI-H522 lung = test system: NCI-H522 lung
NCI/ADR-RES ovarian = test system: NCI/ADR-RES ovarian
OVCAR-3 ovarian = test system: OVCAR-3 ovarian
OVCAR-4 ovarian = test system: OVCAR-4 ovarian
OVCAR-5 ovarian = test system: OVCAR-5 ovarian
OVCAR-8 ovarian = test system: OVCAR-8 ovarian
PC-3 prostate = test system: PC-3 prostate
RPMI-8226 leukemia = test system: RPMI-8226 leukemia
RXF 393 renal = test system: RXF 393 renal
SF-268 CNS = test system: SF-268 CNS
SF-295 CNS = test system: SF-295 CNS
SF-539 CNS = test system: SF-539 CNS
SK-MEL-2 melanoma = test system: SK-MEL-2 melanoma
SK-MEL-28 melanoma = test system: SK-MEL-28 melanoma
SK-MEL-5 melanoma = test system: SK-MEL-5 melanoma
SK-OV-3 ovarian = test system: SK-OV-3 ovarian
SN12C renal = test system: SN12C renal
SNB-19 CNS = test system: SNB-19 CNS
SNB-75 CNS = test system: SNB-75 CNS
SR leukemia = test system: SR leukemia
SW-620 colon = test system: SW-620 colon
T-47D breast = test system: T-47D breast
TK-10 renal = test system: TK-10 renal
U251 CNS = test system: U251 CNS
UACC-257 melanoma = test system: UACC-257 melanoma
UACC-62 melanoma = test system: UACC-62 melanoma
UO-31 renal = test system: UO-31 renal

`COc1cc(O)c2c(c1)[C@H]1O[C@@H]1C[C@H](O)[C@H](O)C(=O)/C=C\C[C@H](C)OC2=O` showed a GI50 (786-0 renal) of 4.87 µM, a TGI (786-0 renal) of 27.4 µM and a GI50 (A498 renal) of 1.93 µM. It also gave a TGI (A498 renal) of 9.51 µM, a GI50 (A549 NSCLC) of 16.7 µM and a TGI (A549 NSCLC) of over 33.3 µM. The GI50 (ACHN renal) was 2.14 µM, the TGI (ACHN renal) was over 33.3 µM and the GI50 (BT-549 breast) was 1.18 µM. The TGI (BT-549 breast) was 10.7 µM, the GI50 (CCRF-CEM leukemia) was 1.54 µM and the TGI (CCRF-CEM leukemia) was over 33.3 µM. The GI50 (COLO 205 colon) was 0.0226 µM, the TGI (COLO 205 colon) was 4.02 µM and the GI50 (DU-145 prostate) was 3.53 µM. For the same compound, the TGI (DU-145 prostate) was over 33.3 µM, the GI50 (EKVX NSCLC) was 3.88 µM and the TGI (EKVX NSCLC) was over 30.8 µM. The GI50 (HCC-2998 colon) was 4.85 µM, the TGI (HCC-2998 colon) was 19 µM and the GI50 (HCT-116 colon) was 0.779 µM. For the same compound, the TGI (HCT-116 colon) was over 17.5 µM, the GI50 (HCT-15 colon) was 1.81 µM and the TGI (HCT-15 colon) was 23.4 µM. It also gave a GI50 (HL-60(TB) leukemia) of 0.197 µM, a TGI (HL-60(TB) leukemia) of over 10.6 µM and a GI50 (HOP-62 NSCLC) of 8.97 µM. It also gave a TGI (HOP-62 NSCLC) of over 29.7 µM, a GI50 (HOP-92 NSCLC) of 0.176 µM and a TGI (HOP-92 NSCLC) of 2.88 µM. The GI50 (HS 578T breast) was 5.92 µM, the TGI (HS 578T breast) was 27 µM and the GI50 (HT29 colon) was 0.0883 µM. For the same compound, the TGI (HT29 colon) was 13.4 µM, the GI50 (IGROV1 ovarian) was 1.27 µM and the TGI (IGROV1 ovarian) was over 33.3 µM. The GI50 (K-562 leukemia) was 2.09 µM, the TGI (K-562 leukemia) was over 33.3 µM and the GI50 (KM12 colon) was 12.2 µM. The TGI (KM12 colon) was over 33.3 µM, the GI50 (LOX IMVI melanoma) was 1.25 µM and the TGI (LOX IMVI melanoma) was over 19.3 µM. It also gave a GI50 (M14 melanoma) of 0.0483 µM, a TGI (M14 melanoma) of 6.84 µM and a GI50 (MALME-3M melanoma) of 0.00553 µM. The TGI (MALME-3M melanoma) was 0.0231 µM, the GI50 (MCF7 breast) was 2.09 µM and the TGI (MCF7 breast) was over 33.3 µM. The GI50 (MDA-MB-231 breast) was 2.05 µM, the TGI (MDA-MB-231 breast) was 16.2 µM and the GI50 (MDA-MB-435) was 0.298 µM. For the same compound, the TGI (MDA-MB-435) was 7.15 µM, the GI50 (MOLT-4 leukemia) was 2.65 µM and the TGI (MOLT-4 leukemia) was over 33.3 µM. The GI50 (NCI-H226 lung) was 3.71 µM, the TGI (NCI-H226 lung) was over 27.1 µM and the GI50 (NCI-H23 lung) was 1.95 µM. It also gave a TGI (NCI-H23 lung) of over 27.3 µM, a GI50 (NCI-H460 lung) of 4.96 µM and a TGI (NCI-H460 lung) of over 21.2 µM. It also gave a GI50 (NCI-H522 lung) of 0.599 µM, a TGI (NCI-H522 lung) of 6.42 µM and a GI50 (NCI/ADR-RES ovarian) of 8.56 µM. The TGI (NCI/ADR-RES ovarian) was over 33.3 µM, the GI50 (OVCAR-3 ovarian) was 2.49 µM and the TGI (OVCAR-3 ovarian) was 16.5 µM. The GI50 (OVCAR-4 ovarian) was 1.07 µM, the TGI (OVCAR-4 ovarian) was over 33.3 µM and the GI50 (OVCAR-5 ovarian) was 3.98 µM. The TGI (OVCAR-5 ovarian) was over 33.3 µM, the GI50 (OVCAR-8 ovarian) was 6.08 µM and the TGI (OVCAR-8 ovarian) was over 28.6 µM. It also gave a GI50 (PC-3 prostate) of 11.5 µM, a TGI (PC-3 prostate) of over 33.3 µM and a GI50 (RPMI-8226 leukemia) of 1.5 µM. For the same compound, the TGI (RPMI-8226 leukemia) was 14.5 µM, the GI50 (RXF 393 renal) was 1.56 µM and the TGI (RXF 393 renal) was 8.19 µM. It also gave a GI50 (SF-268 CNS) of 6.54 µM, a TGI (SF-268 CNS) of over 28.5 µM and a GI50 (SF-295 CNS) of 9.57 µM. For the same compound, the TGI (SF-295 CNS) was over 33.3 µM, the GI50 (SF-539 CNS) was 4.68 µM and the TGI (SF-539 CNS) was 12.6 µM. For the same compound, the GI50 (SK-MEL-2 melanoma) was 1.68 µM, the TGI (SK-MEL-2 melanoma) was 10.5 µM and the GI50 (SK-MEL-28 melanoma) was 0.0445 µM. It also gave a TGI (SK-MEL-28 melanoma) of 2.32 µM, a GI50 (SK-MEL-5 melanoma) of 1.58 µM and a TGI (SK-MEL-5 melanoma) of 10.3 µM. The GI50 (SK-OV-3 ovarian) was 24 µM, the TGI (SK-OV-3 ovarian) was over 33.3 µM and the GI50 (SN12C renal) was 5.25 µM. The TGI (SN12C renal) was over 27.7 µM, the GI50 (SNB-19 CNS) was 8.59 µM and the TGI (SNB-19 CNS) was over 33.3 µM. For the same compound, the GI50 (SNB-75 CNS) was 6.11 µM, the TGI (SNB-75 CNS) was over 33.3 µM and the GI50 (SR leukemia) was 3.08 µM. The TGI (SR leukemia) was over 30.6 µM, the GI50 (SW-620 colon) was 0.56 µM and the TGI (SW-620 colon) was 6.36 µM. For the same compound, the GI50 (T-47D breast) was 0.774 µM, the TGI (T-47D breast) was 18.3 µM and the GI50 (TK-10 renal) was 1.69 µM. It also gave a TGI (TK-10 renal) of 20.3 µM, a GI50 (U251 CNS) of 8.57 µM and a TGI (U251 CNS) of over 33.3 µM. For the same compound, the GI50 (UACC-257 melanoma) was 0.0584 µM, the TGI (UACC-257 melanoma) was 0.525 µM and the GI50 (UACC-62 melanoma) was 0.114 µM. It also gave a TGI (UACC-62 melanoma) of 5.33 µM, a GI50 (UO-31 renal) of 0.561 µM and a TGI (UO-31 renal) of over 21.6 µM.
